Test results published in PMC5340007 (BMC Cancer, 2017).

Tests used:
[1] = Plasma pharmacokinetics, each drug alone and in combination; conditions: selumetinib + dacarbazine arm
From the text: When more than one maximum occurred, the reported value was assigned to the first occurrence.

[2] = Dose-limiting toxicity and maximum tolerated dose, phase I dose escalation; assay type: in vivo, human (patients with advanced solid tumors)
From the text: Dose-limiting toxicities (DLTs) in the study were defined as those related to treatment and occurring within the first 28 days of therapy. Hematologic DLTs were defined as afebrile grade 4 neutropenia for >5 days, grade 4 neutropenia associated with fever, or grade 4 thrombocytopenia. Non-hematological DLTs were defined as any ≥ grade 3 adverse event (AE) for >7 days that could not be controlled to grade ≤2 with appropriate treatment.
In part B (dose expansion) of the study, an additional 12 evaluable patients received treatment at the combination MTDs.

[3] = cited from earlier work

Compound	Pharmacokinetic parameters administered alone vs in combination [1]	Plasma concentration-time profiles administered alone vs in combination [1]	MTD of selumetinib ([2]; in combination with dacarbazine 1000 mg/m^2 every 21 days)	MTD of selumetinib ([2]; in combination with docetaxel 75 mg/m^2 every 21 days)	MTD of selumetinib ([2]; plus docetaxel with ppG-CSF, defined in part A)	recommended phase II dose of selumetinib ([2]; plus docetaxel without ppG-CSF)	MTD of selumetinib ([2]; with docetaxel 75 mg/m^2 without ppG-CSF)	recommended dose for selumetinib monotherapy ([3]; monotherapy)	monotherapy MTD ([3]; selumetinib monotherapy)	AUC(0–8) ([1]; plasma, dosed in combination, selumetinib 75 mg (N = 15), geometric mean (% CV))
CN(C)/N=N/c1[nH]cnc1C(N)=O [Dacarbazine]	similar	similar	–	–	–	–	–	–	–	–
Cn1cnc2c(F)c(Nc3ccc(Br)cc3Cl)c(C(=O)NOCCO)cc21 [Selumetinib]	–	–	75 mg BID	75 mg BID	75 mg BID	75 mg BID	75 mg BID	75 mg twice daily (BID)	75 mg BID	4544 (45.42) ng•h/mL
